Patent publication US20030134859A1 (SANKYO COMPANY, LIMITED, priority 2000, published 2003)
Where a name gives a salt, the structure may show the parent alone. Read-outs that look alike come from different tables or passages of the source.

Assays:
[1] = test system: human colon cancer cells COL-2-JCK; assay: Inhibition of colony forming activity in human colon cancer cells; assay type: cell-based; details: 1 μM test compound, 10 days, sum of colony areas vs control; for inhibition at 1 µM: Homo sapiens, 240 h, read-out: Inhibition Rate (%) against the colony forming activity
Procedure, shortened: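 COL-2-JCK cells seeded at 300 cells/well and grown 10 days at 37 °C, 5% CO2 with compound at 1 μM final (0.1% DMSO). Colonies stained with crystal violet in formalin; inhibition % = (1 − treated/control colony area)×100.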

Balb/c mice = assay: Prevention of concanavalin A liver injury; assay type: in vivo, mouse; details: 10 mg/mL suspension at 10 mL/kg, 30 min prior to Con A, plasma 24 hr after Con A; for inhibition in vivo at 10000 µg/mL, 100 mg/kg: Mus musculus, po, 24 h
Procedure, shortened: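 Female Balb/c mice, 6-8 weeks, 5/group; compound suspended at 10 mg/mL in 0.5% CMC, given orally at 10 mL/kg 30 min before i.v. Con A (2.0 mg/mL, 10 mL/kg). Plasma AST and ALT measured 24 hr after Con A; inhibitory rate calculated against vehicle and untreated groups.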

[2] = read-out: Preventing rate against liver injury, ALT (%)
[3] = read-out: Preventing rate against liver injury, AST (%)

Compound	inhibition at 1 µM [1]	inhibition in vivo at 10000 µg/mL, 100 mg/kg (Balb/c mice; [2])	inhibition in vivo at 10000 µg/mL, 100 mg/kg (Balb/c mice; [3])	other results
O=C(Nc1ccc(-c2ccc([N+](=O)[O-])cc2)cc1)c1cc([N+](=O)[O-])ccc1Cl [Example 9, N-[4-(4-Nitrophenyl)phenyl)-(2-chloro-5-nitrophenyl)carboxamide]	29%	–	–	–
CCCc1ccc(NC(=O)c2cc([N+](=O)[O-])ccc2Cl)cc1 [Example 15, N-(4-Propylphenyl)-(2-chloro-5-nitrophenyl)carboxamide]	14%	39%	54%	–
O=C(Nc1ccc(OC(F)(F)F)cc1)c1cc([N+](=O)[O-])ccc1Cl [Example 18, N-(4-Trifluoromethyloxyphenyl)-(2-chloro-5-nitrophenyl)carboxamide]	–	39.8%	24.1%	–
Cc1ccc(S(=O)(=O)Nc2ccc(NC(=O)c3cc([N+](=O)[O-])ccc3Cl)cc2)cc1 [Example 32, N-[4-(4-Methylbenzene)sulfonylaminophenyl]-(2-chloro-5-nitrophenyl)carboxamide]	–	–	–	Inhibition Rate (%) against the colony forming activity [1]: 39.0%
O=C(Nc1nc2ccc([N+](=O)[O-])cc2s1)c1cc([N+](=O)[O-])ccc1Cl [Example 34, N-(6-Nitrobenzothiazol-2-yl)-(2-chloro-5-nitrophenyl)carboxamide]	41%	–	–	–
O=C(Nc1ccncc1)c1cc([N+](=O)[O-])ccc1Cl [Example 49, N-(4-Pyridyl)-(2-chloro-5-nitrophenyl)carboxamide]	–	59%	61%	–
O=C(Nc1cnc2ccccc2c1)c1cc([N+](=O)[O-])ccc1Cl [Example 55, N-(3-Quinolinyl)-(2-chloro-5-nitrophenyl)carboxamide]	8%	–	–	–
O=C(Nc1nccc2ccccc12)c1cc([N+](=O)[O-])ccc1Cl [Example 59, N-(Isoquinolin-1-yl)-(2-chloro-5-nitrophenyl)carboxamide]	94%	18.7%	20.5%	–
O=C(Nc1nc2cc(Cl)ccc2o1)c1cc([N+](=O)[O-])ccc1Cl [Example 75, N-(5-Chlorobenzoxazol-2-yl)-(2-chloro-5-nitrophenyl)carboxamide]	65%	–	–	–
O=C(Nc1ncc(Br)cn1)c1cc([N+](=O)[O-])ccc1Cl [Example 77, N-(5-Bromopyrimidin-2-yl)-(2-chloro-5-nitrophenyl)carboxamide]	1%	–	–	–
Nc1ccc(-c2ccc(NC(=O)c3cc([N+](=O)[O-])ccc3Cl)cc2)cc1 [Example 88, N-[4-(4-Aminophenyl)phenyl]-(2-chloro-5-nitrophenyl)carboxamide mono-hydrochloride]	8%	42.3%	57%	–
Cc1c(C)c2c(c(C)c1O)C(=O)CC(C)(COc1ccc(NC(=O)c3cc([N+](=O)[O-])ccc3Cl)cc1)O2 (stereo not shown) [Example 92, N-[4-(6-Hydroxy-2,5,7,8-tetramethyl-4-oxochroman-2-ylmethoxy)phenyl]-(2-chloro-5-nitrophenyl)carboxamide]	15%	–	–	–
CS(=O)(=O)Nc1ccc(-c2ccc(NC(=O)c3cc([N+](=O)[O-])ccc3Cl)cc2)cc1 [Example 93, N-[4-[4-(Methanesulfonylamino)phenyl]phenyl]-(2-chloro-5-nitrophenyl)carboxamide]	44%	–	–	–
Cc1nnc(NS(=O)(=O)c2ccc(NC(=O)c3cc([N+](=O)[O-])ccc3Cl)cc2)s1 [Example 101, N-[4-[(5-Methyl-[1,3,4]thiadiazol-2-yl)aminosulfonyl]phenyl]-(2-chloro-5-nitrophenyl)carboxamide]	32%	–	–	–
Cc1noc(NS(=O)(=O)c2ccc(NC(=O)c3cc([N+](=O)[O-])ccc3Cl)cc2)c1C [Example 104, N-[4-[(3,4-Dimethylisoxazol-6-yl)aminosulfonyl]phenyl]-(2-chloro-5-nitrophenyl)carboxamide]	22%	–	–	–
O=C(Nc1ccc(N2CCCCC2)cc1)c1cc([N+](=O)[O-])ccc1Cl [Example 114, N-[4-(Piperidin-1-yl)phenyl]-(2-chloro-5-nitrophenyl)carboxamide]	22%	32.8%	50.5%	–
CC(=O)Nc1ccc(-c2ccc(NC(=O)c3cc([N+](=O)[O-])ccc3Cl)cc2)cc1 [Example 118, N-[4-(4-Acetylaminophenyl)phenyl]-(2-chloro-5-nitrophenyl)carboxamide]	41%	55.8%	45%	–
O=C(Nc1ccc(-c2ccc(NC(=O)c3cc([N+](=O)[O-])ccc3Cl)cc2)cc1)c1ccccc1 [Example 120, N-[4-(4-Benzoylaminophenyl)phenyl]-(2-chloro-5-nitrophenyl)carboxamide]	44%	–	–	–
Cc1ccc2nc(NC(=O)c3cc([N+](=O)[O-])ccc3Cl)sc2c1 [Example 141, N-(6-Methybenzothiazol-2-yl)-(2-chloro-5-nitrophenyl)carboxamide]	–	–	–	Inhibition Rate (%) against the colony forming activity [1]: 47.0%
CCc1ccc(S(=O)(=O)Nc2ccc(NC(=O)c3cc([N+](=O)[O-])ccc3Cl)cc2)cc1 [Example 150, N-[4-(4-Ethylbenzenesulfonylamino)phenyl]-(2-chloro-5-nitrophenyl)carboxamide]	41%	–	–	–
CC(=O)c1cccc(NC(=O)c2cc([N+](=O)[O-])ccc2Cl)c1 [Example 156, N-(3-Acetylphenyl)-(2-chloro-5-nitrophenyl)carboxamide]	–	85.5%	82.6%	–
O=C(Nc1ccc(C(=O)N2CCCCC2)cc1)c1cc([N+](=O)[O-])ccc1Cl [Example 159, N-[4-(Piperidylcarbonyl)phenyl]-(2-chloro-5-nitrophenyl)carboxamide]	–	78.7%	91.2%	–
CC(C)(C)c1cc(NS(=O)(=O)c2cccc(NC(=O)c3cc([N+](=O)[O-])ccc3Cl)c2)cc(C(C)(C)C)c1O [Example 161, N-[3-[(3,5-di-tert-Butyl-4-hydroxyphenyl)aminosulfonyl]phenyl]-(2-chloro-5-nitrophenyl)carboxamide]	–	82.8%	69.3%	–
N-[4-[4-(Pyrrolidin-1-ylamino)phenyl]phenyl]-(2-chloro-5-nitrophenyl)carboxamide [Example 171]	–	–	–	Preventing rate against liver injury, ALT (%) (Balb/c mice; oral): 90.0%; Preventing rate against liver injury, AST (%) (Balb/c mice; oral): 102.8%
